Reference: US10981917B2, “Heterocyclic compound, its preparation method, and pharmaceutical composition comprising the same” (Daewoong Pharmaceutical Co., Ltd., priority 2017, dated 2021)

target: PRS (prolyl-tRNA synthetase) protein, PRS portion of EPRS (Homo sapiens (Human), UniProt P07814); test: PRS enzyme activity inhibition experiment ([3H]proline, liquid scintillation); assay type: biochemical; settings: purified PRS protein, 37° C. for 5 to 10 minutes
Protocol: In order to confirm the biological activities of the compounds prepared in Examples, % inhibition or IC50 values of PRS enzyme ([…]) activities were calculated.
Specifically, the portion corresponding to PRS in cDNA of EPRS was subcloned, and the obtained high-purity PRS protein was purified and used in the experiment. The compounds (1 μM) prepared in Examples were added into the reaction buffer (20 mM KPO4 (pH 7.4), 6 mM MgAc, 5 mM ATP, […] tRNA, 0.5 mM DTT, […][^3H]proline (1 mCi/mL)) and allowed to react at 37° C. for 5 to 10 minutes. The reaction was terminated with 3M paper that was in advance dried by addition of 5% TCA. The radioactivity was measured using a liquid scintillation counter.
% Inhibition and IC50 values of the respective compounds were calculated and analyzed using Microsoft Excel or Sigma Plot 8.0. In Tables 1 to 3, the results are divided into A, B and C according to the range of IC50. The case where the derived IC50 is 100 nM or less is represented by “A”, the case where the IC50 is 100 to 500 nM is represented by “B”, and the case where the IC50 is 500 nM or higher is represented by “C”.

PRS (prolyl-tRNA synthetase) protein, PRS portion of EPRS, sequence (P07814 1007-1512): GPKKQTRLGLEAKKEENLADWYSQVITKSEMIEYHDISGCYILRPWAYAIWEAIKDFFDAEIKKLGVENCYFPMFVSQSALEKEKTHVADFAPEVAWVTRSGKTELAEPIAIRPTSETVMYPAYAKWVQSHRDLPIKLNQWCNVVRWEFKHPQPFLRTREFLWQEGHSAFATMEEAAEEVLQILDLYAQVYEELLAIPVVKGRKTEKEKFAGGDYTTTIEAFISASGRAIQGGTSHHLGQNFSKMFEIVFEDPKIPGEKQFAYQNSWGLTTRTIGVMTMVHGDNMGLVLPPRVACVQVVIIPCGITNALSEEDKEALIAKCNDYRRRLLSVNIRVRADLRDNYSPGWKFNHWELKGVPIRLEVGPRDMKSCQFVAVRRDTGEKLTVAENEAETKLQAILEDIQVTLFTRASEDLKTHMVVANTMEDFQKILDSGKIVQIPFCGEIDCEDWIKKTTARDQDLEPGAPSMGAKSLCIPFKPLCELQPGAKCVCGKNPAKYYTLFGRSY

Row | SMILES | IC50 [nM]
1 | O[C@H]1CCCN[C@@H]1CCCn1cnc2cc(Br)cc(Cl)c21 [Example 70, (2R,3S)-2-(3-(5-bromo-7-chloro-1H-benzo[d]imidazol-1-yl)propyl)piperidin-3-ol] | ≤ 100
2 | O[C@H]1CCCN[C@@H]1CCCn1cnc2ccc(-c3ccccc3F)cc21 [Example 23, (2R,3S)-2-(3-(6-(2-fluorophenyl)-1H-benzo[d]imidazol-1-yl)propyl)piperidin-3-ol] | 100 to 500
3 | O[C@H]1CCCN[C@@H]1/C=C/Cn1cnc2cc(Cl)cc(Cl)c21 [Example 182, (2R,3S)-2-((E)-3-(5,7-dichloro-1H-benzo[d]imidazol-1-yl)prop-1-en-1-yl)piperidin-3-ol] | ≤ 100
4 | Cc1c(F)ccc2c1ncn2CCC[C@H]1NCCC[C@@H]1O [Example 64, (2R,3S)-2-(3-(5-fluoro-4-methyl-1H-benzo[d]imidazol-1-yl)propyl)piperidin-3-ol] | ≤ 100
5 | O[C@H]1CCCN[C@@H]1CCCn1cnc2c(-c3cccc(Cl)c3)cccc21 [Example 21, (2R,3S)-2-(3-(4-(3-chlorophenyl)-1H-benzo[d]imidazol-1-yl)propyl)piperidin-3-ol] | ≥ 500
6 | Cc1c(Cl)ccc2c1ncn2CC#C[C@H]1NCCC[C@@H]1O [Example 227, (2R,3S)-2-(3-(5-chloro-4-methyl-1H-benzo[d]imidazol-1-yl)prop-1-yn-1-yl)piperidin-3-ol] | ≥ 500
7 | COc1ccc2c(ncn2CCC[C@H]2NCCC[C@@H]2O)c1Cl [Example 59, (2R,3S)-2-(3-(4-chloro-5-methoxy-1H-benzo[d]imidazol-1-yl)propyl)piperidin-3-ol] | 100 to 500
8 | CN(C)C(=O)c1cn(C/C=C/[C@H]2NCCC[C@@H]2O)c2ccc(Br)cc12 [Example 216, 5-bromo-1-((E)-3-((2R,3S)-3-hydroxypiperidin-2-yl)allyl)-N,N-dimethyl-1H-indole-3-carboxamide] | ≥ 500
9 | C/C(=C\[C@H]1NCCC[C@@H]1O)Cn1cnc2c(C)c(Cl)ccc21 [Example 221, (2R,3S)-2-((E)-3-(5-chloro-4-methyl-1H-benzo[d]imidazol-1-yl)-2-methylprop-1-en-1-yl)piperidin-3-ol] | ≥ 500
10 | O[C@H]1CCCN[C@@H]1CCCn1cnc2c(N3CCCCC3)ncnc21 [Example 141, (2R,3S)-2-(3-(6-(piperidin-1-yl)-9H-purin-9-yl)propyl)piperidin-3-ol] | ≥ 500
11 | O[C@H]1CCCN[C@@H]1CCCn1cnc2c(F)c(F)ccc21 [Example 49, (2R,3S)-2-(3-(4,5-difluoro-1H-benzo[d]imidazol-1-yl)propyl)piperidin-3-ol] | 100 to 500
12 | O=[N+]([O-])c1c(Br)ccc2c1ncn2C/C=C/[C@H]1NCCC[C@@H]1O [Example 176, (2R,3S)-2-((E)-3-(5-bromo-4-nitro-1H-benzo[d]imidazol-1-yl)prop-1-en-1-yl)piperidin-3-ol] | ≥ 500
13 | O[C@H]1CCCN[C@@H]1CCCn1cnc2cc(Cl)c(Cl)cc21 [Example 53, (2R,3S)-2-(3-(5,6-dichloro-1H-benzo[d]imidazol-1-yl)propyl)piperidin-3-ol] | 100 to 500
14 | Cc1c(Cl)cnc2c1ncn2C/C=C/[C@H]1NCCC[C@@H]1O [Example 188, (2R,3S)-2-((E)-3-(6-chloro-7-methyl-3H-imidazo[4,5-b]pyridin-3-yl)prop-1-en-1-yl)piperidin-3-ol] | ≥ 500
15 | Cn1cncc1-c1cc(Cl)cc2ncn(CCC[C@H]3NCCC[C@@H]3O)c12 [Example 96, (2R,3S)-2-(3-(5-chloro-7-(1-methyl-1H-imidazol-5-yl)-1H-benzo[d]imidazol-1-yl)propyl)piperidin-3-ol] | ≥ 500
16 | Cc1nc2cc(Br)c(F)c(F)c2n1C/C=C/[C@H]1NCCC[C@@H]1O [Example 193, (2R,3S)-2-((E)-3-(5-bromo-6,7-difluoro-2-methyl-1H-benzo[d]imidazol-1-yl)prop-1-en-1-yl)piperidin-3-ol] | ≥ 500
17 | O[C@H]1CCCN[C@H]1CCCn1cnc2c(Cl)c(Cl)ccc21 [Example 41, (2S,3S)-2-(3-(4,5-dichloro-1H-benzo[d]imidazol-1-yl)propyl)piperidin-3-ol] | ≥ 500
18 | CC(C)(C)n1cc(-c2cc(Cl)cc3ncn(CCC[C@H]4NCCC[C@@H]4O)c23)cn1 [Example 106, (2R,3S)-2-(3-(7-(1-(tert-butyl)-1H-pyrazol-4-yl)-5-chloro-1H-benzo[d]imidazol-1-yl)propyl)piperidin-3-ol] | 100 to 500
19 | Cc1ccc2c(nc(CO)n2CCC[C@H]2NCCC[C@@H]2O)c1C [Example 146, (2R,3S)-2-(3-(2-(hydroxymethyl)-4,5-dimethyl-1H-benzo[d]imidazol-1-yl)propyl)piperidin-3-ol] | ≥ 500

Row | SMILES | IC50 [nM]
20 | O[C@H]1CCCN[C@@H]1CCCn1cnc2cc(F)c(Cl)cc21 [Example 32, (2R,3S)-2-(3-(6-chloro-5-fluoro-1H-benzo[d]imidazol-1-yl)propyl)piperidin-3-ol] | 100 to 500
21 | O[C@H]1CCCN[C@@H]1CCCn1cnc2c(Cl)cccc21 [Example 10, (2R,3S)-2-(3-(4-chloro-1H-benzo[d]imidazol-1-yl)propyl)piperidin-3-ol] | 100 to 500
22 | O[C@H]1CCCN[C@@H]1/C=C/Cn1cnc2c(Cl)c(Br)cnc21 [Example 187, (2R,3S)-2-((E)-3-(6-bromo-7-chloro-3H-imidazo[4,5-b]pyridin-3-yl)prop-1l-en-1-yl)piperidin-3-ol] | ≤ 100
23 | Cn1c(=O)[nH]c(=O)c2c1ncn2CCC[C@H]1NCCC[C@@H]1O [Example 163, 7-(3-((2R,3S)-3-hydroxypiperidin-2-yl)propyl)-3-methyl-1H-purine-2,6(3H,7H)-dione] | ≥ 500
24 | O[C@H]1CCCN[C@@H]1CCCn1cnc2c(F)cccc21 [Example 6, (2R,3S)-2-(3-(4-fluoro-1H-benzo[d]imidazol-1-yl)propyl)piperidin-3-ol] | ≥ 500
25 | Nc1nc2cc(Cl)c(Cl)cc2n1CCC[C@H]1NCCC[C@@H]1O [Example 148, (2R,3S)-2-(3-(2-amino-5,6-dichloro-1H-benzo[d]imidazol-1-yl)propyl)piperidin-3-ol] | 100 to 500
26 | O[C@H]1CCCN[C@@H]1CCCn1cnc2cc(Cl)cc(-c3cnn(CC4OCCO4)c3)c21 [Example 95, (2R,3S)-2-(3-(7-(1-((1,3-dioxolan-2-yl)methyl)-1H-pyrazol-4-yl)-5-chloro-1H-benzo[d]imidazol-1-yl)propyl)piperidin-3-ol] | 100 to 500
27 | O[C@H]1CCCN[C@@H]1C#CCn1cnc2cc(Cl)c(Cl)cc21 [Example 225, (2R,3S)-2-(3-(5,6-dichloro-1H-benzo[d]imidazol-1-yl)prop-1-yn-1-yl)piperidin-3-ol] | ≥ 500
28 | O[C@H]1CCCN[C@@H]1CCCn1cnc2cc(-c3cccc(F)c3)ccc21 [Example 22, (2R,3S)-2-(3-(5-(3-fluorophenyl)-1H-benzo[d]imidazol-1-yl)propyl)piperidin-3-ol] | ≥ 500
29 | O[C@H]1CCCN[C@@H]1CCCn1cnc2c(Cl)c(Cl)ccc21 [Example 40, (2R,3S)-2-(3-(4,5-dichloro-1H-benzo[d]imidazol-1-yl)propyl)piperidin-3-ol] | ≤ 100
30 | Cc1c(F)ccc2c1ncn2C/C=C/[C@H]1NCCC[C@@H]1O [Example 167, (2R,3S)-2-((E)-3-(5-fluoro-4-methyl-1H-benzo[d]imidazol-1-yl)prop-1-enyl)piperidin-3-ol] | 100 to 500
31 | O[C@H]1CCCN[C@@H]1CCCn1cnc2c(Cl)c(Br)cnc21 [Example 133, (2R,3S)-2-(3-(6-bromo-7-chloro-3H-imidazo[4,5-b]pyridin-3-yl)propyl)piperidin-3-ol] | ≥ 500
32 | COc1cc2ncn(CCC[C@H]3NCCC[C@@H]3O)c2cc1Cl [Example 37, (2R,3S)-2-(3-(6-chloro-5-methoxy-1H-benzo[d]imidazol-1-yl)propyl)piperidin-3-ol] | 100 to 500
33 | COC(=O)c1cn(C/C=C/[C@H]2NCCC[C@@H]2O)c2c(Cl)cccc12 [Example 212, methyl 7-chloro-1-((E)-3-((2R,3S)-3-hydroxypiperidin-2-yl)allyl)-1H-indole-3-carboxylate] | ≥ 500
34 | O=C(O)c1cn(C/C=C/[C@H]2NCCC[C@@H]2O)c2ccccc12 [Example 209, 1-((E)-3-((2R,3S)-3-hydroxypiperidin-2-yl)allyl)-1H-indole-3-carboxylic acid] | ≥ 500
35 | O[C@H]1CCCN[C@@H]1CCCn1cnc2cccc(-c3ccc(F)cc3)c21 [Example 28, (2R,3S)-2-(3-(7-(4-fluorophenyl)-1H-benzo[d]imidazol-1-yl)propyl)piperidin-3-ol] | 100 to 500
36 | O[C@H]1CCCN[C@@H]1CCCn1cnc2cc(F)cc(F)c21 [Example 58, (2R,3S)-2-(3-(5,7-difluoro-1H-benzo[d]imidazol-1-yl)propyl)piperidin-3-ol] | ≤ 100
37 | O[C@H]1CCCN[C@@H]1CCCn1cnc2cc(Cl)cc(-c3cn[nH]c3)c21 [Example 81, (2R,3S)-2-(3-(5-chloro-7-(1H-pyrazol-4-yl)-1H-benzo[d]imidazol-1-yl)propyl)piperidin-3-ol] | ≥ 500
38 | O[C@H]1CCCN[C@@H]1CCCn1cnc2cc(F)ccc21 [Example 7, (2R,3S)-2-(3-(5-fluoro-1H-benzo[d]imidazol-1-yl)propyl)piperidin-3-ol] | 100 to 500
